Here are results for two compounds from patent US20050014768A1, “Use of 4-oxobutanoic acid derivatives in the treatment of inflammation” (priority 2001, published 2005).

The subject of this test is carrageenan-induced inflammatory oedema of the rat paw. In words: Test of carrageenan-induced inflammatory oedema (rat paw, plethysmometry). Type of test: in vivo, Rat of Wistar type. The conditions noted are these: for V oedema: difference in paw volume before and three hours after carrageenan, one hour before carrageenan; for Reduction in oedema: versus controls, three hours after carrageenan. As to the method: The compounds of the formula (I) were subjected to biological tests designed to reveal their anti-inflammatory activity. The in vivo activity of the compounds of the formula (I) was studied in an experimental model of inflammation in rats. Inflammatory oedema of the rat paw is induced by intradermal injection of carrageenan (1% V/V) into the hind paw of the rat. This oedema is measured by plethysmometry according to the method of Winter C. A. et al. (Proc. Soc. Exp. Biol. Med.; (1962); 111; 544-547). The substances with an anti-inflammatory effect bring about a reduction in the oedema thus created. Indomethacin is used as anti-inflammatory reference in the test.
Animal model: Rat of Wistar type
Anti-inflammatory reference: indomethacin from the company Sigma
Control: 0.5% methylcellulose hydrogel.
After fasting for one day, the volume of the right hind paw is measured [V paw]. The test compounds, the reference and the control are administered orally in a volume of 10 ml/kg. One hour after administration, oedema is induced by an intraplantar injection of 50 microlitres of carrageenan (1%, VN) hydrogel into the right hind paw. The volume of this paw is measured three hours after inducing the oedema. The intensity of the oedema [V oedema] is evaluated by the difference in the volume of the paw, before and three hours after the injection of carrageenan.

For `COc1ccc2c(c1)c(CC(=O)O)c(C)n2C(=O)c1ccc(Cl)cc1` [Indomethacin, indomethacin, reference compound], under “oral, dose not given”, the V oedema came out at 0.20 mL and the Reduction in oedema was −67%.
As to `O=C(CC(Cc1ccccc1)C(=O)O)c1ccc(F)cc1` (single isomer, unassigned; (-)) [P, (−)-2-benzyl-4-(4-fluorophenyl)-4-oxobutanoic acid], the V oedema came out at 0.42 mL (oral 30 mg), 0.11 mL (oral 100 mg) and 0.17 mL (oral 300 mg). In addition, the Reduction in oedema (oral 30 mg) is −32%, the Reduction in oedema (oral 100 mg) is recorded as −83% and the Reduction in oedema (oral 300 mg) is listed as −73%.
